Laboratory results reported in US9273184B1, “Synthesis of highly fluorinated amines for use in polymers and biomaterials” (University of Southern California, priority 2009, dated 2016).
Where a name gives a salt, the structure may show the parent alone.

Test: 31P NMR evidence for guanidinium-phosphonate binding (addition of amphiphile or comparator to MePO3K2)
Settings: for change of the 31P signal of the phosphonate on addition (shift and broadening, in words): FIGS. 11A-D
Description: Guanidinium binds to phosphonate through a salt bridge that is buttressed by a bidentate hydrogen bonding system FIG. 10. This interaction is generally stable within a wide range of pH values. Thus, guanidinium-functionalized amphiphiles (29a-c) should form complexes with phosphonates in aqueous buffer. We show here the interaction between amphipile (29a) and MePO3K2 using ^31P NMR, FIGS. 11A-D, which has been used as a probe for phosphate binding to several types of cations. […] This broadening effect is more pronounced as additional compound (29a) is added. The change in the shape of the peak is consistent with reduced tumbling associated with increased size or reversible association of compound (29a) with MePO3K2, which indicates complexation between the guanidinium species and the phosphonate group. […] Thus, guanidinium compound (29a) is not merely protonating the phosphonate in FIG. 11A. […] Urea is structurally similar to guanidinium and can potentially complex a phosphonate in a manner similar to compound (29a) (FIG. 10). In the presence of HCl, similar chemical behavior is expected when MePO3K2 is treated with urea as when it is treated with compound 29.

Row | SMILES | change of the 31P signal of the phosphonate on addition (shift and broadening, in words) | 31P Chemical shift of MePO3K2 (MePO3K2 + 1 eq of additive) [ppm] | 31P Half-Height Width of MePO3K2 (MePO3K2 + 1 eq of additive) [Hz] | 31P Chemical shift of MePO3K2 (MePO3K2 + 2 eq of additive) [ppm] | 31P Half-Height Width of MePO3K2 (MePO3K2 + 2 eq of additive) [Hz] | 31P Chemical shift of MePO3K2 (MePO3K2 + 3 eq of additive) [ppm] | 31P Half-Height Width of MePO3K2 (MePO3K2 + 3 eq of additive) [Hz] | 31P chemical shift of protonated MePO3H2 (in the presence of HCl, FIG. 11B, equivalents not given) [ppm] | 31P Chemical shift of MePO3K2 (MePO3K2 + 4 eq of additive) [ppm] | 31P Half-Height Width of MePO3K2 (MePO3K2 + 4 eq of additive) [Hz] | 31P Chemical shift of MePO3K2 (MePO3K2 + 1 eq urea + 2 eq HCl) [ppm] | 31P Half-Height Width of MePO3K2 (MePO3K2 + 1 eq urea + 2 eq HCl) [Hz] | 31P Chemical shift of MePO3K2 (MePO3K2 + 4 eq urea + 2 eq HCl) [ppm] | 31P Half-Height Width of MePO3K2 (MePO3K2 + 4 eq urea + 2 eq HCl) [Hz]
1 | Cl [HCl] | remains sharp and shifts downfield | 27.8 | 3.8 | 29.9 | 3.4 | 30.4 | 3.4 | 30.4 | – | – | – | – | – | –
2 | Cl.N [NH4Cl] | small downfield shift like HCl, but did not broaden the signal | 21.8 | 3.6 | – | – | – | – | – | 22.1 | 4.2 | – | – | – | –
3 | NC(N)=O [urea, Urea] | do not broaden | – | – | – | – | – | – | – | – | – | 27.6 | 3.3 | 27.7 | 3.6
